Our source for the IC50 values is EP3436445B1, “HISTONE DEMETHYLASE INHIBITORS” (Celgene Quanticel Research, Inc., priority 2016, dated 2017).

Molecules are shown by their SMILES.

The test deals with T1, FBXL10 (Homo sapiens, UniProt Q8NHM5).
T1 construct: purchased BPS Bioscience 50120
T1 sequence (Q8NHM5 1-650): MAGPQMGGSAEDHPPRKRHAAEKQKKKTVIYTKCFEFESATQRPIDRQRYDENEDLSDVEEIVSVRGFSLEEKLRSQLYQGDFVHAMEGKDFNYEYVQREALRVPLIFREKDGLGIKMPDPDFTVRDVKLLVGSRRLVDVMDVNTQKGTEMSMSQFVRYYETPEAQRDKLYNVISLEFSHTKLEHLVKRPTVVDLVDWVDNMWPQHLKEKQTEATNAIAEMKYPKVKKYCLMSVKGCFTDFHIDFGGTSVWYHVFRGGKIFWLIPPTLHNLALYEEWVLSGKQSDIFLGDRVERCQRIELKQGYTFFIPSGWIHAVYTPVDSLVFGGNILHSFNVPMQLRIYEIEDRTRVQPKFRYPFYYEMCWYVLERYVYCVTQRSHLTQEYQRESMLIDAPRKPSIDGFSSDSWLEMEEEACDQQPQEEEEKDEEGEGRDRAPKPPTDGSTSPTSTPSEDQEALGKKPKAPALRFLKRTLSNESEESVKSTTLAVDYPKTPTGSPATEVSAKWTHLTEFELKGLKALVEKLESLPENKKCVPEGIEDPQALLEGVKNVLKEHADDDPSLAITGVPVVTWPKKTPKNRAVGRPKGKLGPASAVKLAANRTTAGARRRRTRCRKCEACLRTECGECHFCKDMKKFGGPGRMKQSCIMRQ
Nature of the test: FBXL10 in vitro enzyme inhibition assay (AlphaScreen). It counts as biochemical. The settings on record: Table 5. The text has this: This assay determines the ability of a test compound to inhibit FBXL11, FBXL10, and PHF8 demethylase activity. Baculovirus expressed FBXL11 (GenBank Accession #NM_012308, AA1-1162) was purchased from BPS Bioscience (Cat#50102). Baculovirus expressed FBXL10 (GenBank Accession #NM_032590, AA 1-650) was purchased from BPS Bioscience (Cat #50120). Baculovirus expressed PHF8 (GenBank Accession NP_055922.1) was purchased from Active Motif (Cat#31435).
The ability of test compounds to inhibit the activity of FBXL10 was determined in 384-well plate format under the following reaction conditions: 0.3 nM FBXL10, 30 nM H3K36me2-biotin labeled peptide (Anaspec cat # 64442), 0.2 µM alpha-ketoglutaric acid in assay buffer of 50 mM HEPES, pH7.3, 0.005% Brij35, 0.5 mM TCEP, 0.2 mg/ml BSA, 50 µM sodium L-ascorbate, 5 µM ammonium iron(II) sulfate. Reaction product is determined quantitatively by AlphaScreen detection after the addition of detection reagents anti-H3K36me1 antibody, AlphaScreen® Streptavidin-coated Donor beads, and AlphaScreen® Protein A Acceptor beads in 50 mM HEPES, pH7.3, 10 mM NaCl, 0.005% Brij35, 5 mM EDTA, 2 mg/ml BSA to final 10 µg/ml beads.
The assay reaction was initiated by the following: 3 µl of the mixture of 90 nM H3K36me2-biotin labeled peptide and 0.6 µM alpha-ketoglutaric acid with 3 µl of 11-point serial diluted inhibitor in 3% DMSO are added to each well of 384 well Proxiplate (Perkin Elmer), followed by the addition of 3 µl of 0.9 nM FBXL10 to initiate the reaction. The reaction mixture is incubated at room temperature for 1 hour, and terminated by the addition of 3 µl of appropriate dilution of anti H3K36me1 antibody in 50 mM HEPES, pH7.3, 10 mM NaCl, 0.005% Brij35, 5 mM EDTA, 2 mg/ml BSA. Plates will then incubated at room temperature for 40 minutes, followed by addition of 3 µl of 50 µg/ml AlphaScreen® Streptavidin-coated Donor beads and AlphaScreen® Protein A Acceptor beads in 50 mM HEPES, pH7.3, 10 mM NaCl, 0.005% Brij35, 5 mM EDTA, 2 mg/ml BSA. Plates will then be read by EnVision Multilabel Reader in AlphaScreen mode after minimum 2 hour incubation at room temperature. The AlphaScreen signal for each well is used to determine inhibition constant (IC50).
A general note: In Alpha technology, singlet oxygen from a donor bead excites a nearby acceptor bead.
The molecule `FC(F)(F)c1[nH]nnc1-c1ccnc(-c2cn(Cc3ccccc3)cn2)c1` [Example 72, 2-(1-benzyl-1H-imidazol-4-yl)-4-[5-(trifluoromethyl)-1H-1,2,3-triazol-4-yl]pyridine] had an IC50 of at most 0.1 µM.
In the case of `FC(F)(F)c1[nH]nnc1-c1ccnc(-c2cn(CCc3ccccc3Cl)cn2)c1` [Example 57] it was at most 0.1 µM.
Then `CC(c1ccccc1)n1cnc(-c2cc(-c3nn[nH]c3C(F)(F)F)ccn2)c1` (stereo not shown) [Example 73, 2-[1-(1-phenylethyl)-1H-imidazol-4-yl]-4-[5-(trifluoromethyl)-1H-1,2,3-triazol-4-yl]pyridine], with at most 0.1 µM; and `Cc1cc(F)ccc1Cn1cnc(-c2cc(-c3nn[nH]c3C(F)(F)F)ccn2)c1` [Example 70, 2-{1-[(4-fluoro-2-methylphenyl)methyl]-1H-imidazol-4-yl}-4-[5-(trifluoromethyl)-1H-1,2,3-triazol-4-yl]pyridine], with at most 0.1 µM; and `CCOc1ccccc1CCn1cnc(-c2cc(-c3nn[nH]c3C(F)(F)F)ccn2)c1` [Example 59], with 0.1 to 1 µM.
Then `Fc1ccc(CCn2cnc(-c3cc(-c4nn[nH]c4C(F)(F)F)ccn3)c2)cc1` [Example 77], with at most 0.1 µM; and `Cc1ccc(CCn2cnc(-c3cc(-c4nn[nH]c4C(F)(F)F)ccn3)c2)cc1` [Example 91, 2-{1-[2-(4-methylphenyl)ethyl]-1H-imidazol-4-yl}-4-[5-(trifluoromethyl)-1H-1,2,3-triazol-4-yl]pyridine], with at most 0.1 µM; and `Fc1ccccc1Cn1cnc(-c2cc(-c3nn[nH]c3C(F)(F)F)ccn2)c1` [Example 62, 2-{1-[(2-fluoroprtenyl)methyl]-1H-imidazol-4-yl}-4-[5-(trifluoromethyl)-1H-1,2,3-triazol-4-yl]pyridine], with at most 0.1 µM.
`Fc1cccc(CCn2cnc(-c3cc(-c4nn[nH]c4C(F)(F)F)ccn3)c2)c1` [Example 78, 2-{1-[2-(3-fluorophenyl)ethyl]-1H-imidazol-4-yl}-4-[5-(trifluoromethyl)-1H-1,2,3-triazol-4-yl]pyridine] gave an IC50 of at most 0.1 µM.
For the molecule `Fc1ccc(Cn2cnc(-c3cc(-c4nn[nH]c4C(F)(F)F)ccn3)c2)c(F)c1` [Example 68, 2-{1-[(2,4-difluorophenyl)methyl]-1H-imidazol-4-yl}-4-[5-(trifluoromethyl)-1H-1,2,3-triazol-4-yl]pyridine], the IC50 is at most 0.1 µM.
In the case of `CC(C)C(c1ccccc1)n1cnc(-c2cc(-c3nn[nH]c3C(F)(F)F)ccn2)c1` (stereo not shown) [Example 75, 2-[1-(2-methyl-1-phenylpropyl)-1H-imidazol-4-yl]-4-[5-(trifluoromethyl)-1H-1,2,3-triazol-4-yl]pyridine] it was 0.1 to 1 µM.
For the molecule `O=C(c1ccccc1)N1CCC[C@@H](n2cnc(-c3cc(-c4nn[nH]c4C(F)(F)F)ccn3)c2)C1` [Example 89, 2-{1-[(3R)-1-benzoylpiperidin-3-yl]-1H-imidazol-4-yl}-4-[5-(trifluoromethyl)-1H-1,2,3-triazol-4-yl]pyridine], the IC50 was at most 0.1 µM.
Then `Fc1ccc2c(c1)C(Cn1cnc(-c3cc(-c4nn[nH]c4C(F)(F)F)ccn3)c1)CCC2` (stereo not shown) [Example 101, 2-{1-[(7-fluoro-1,2,3,4-tetrahydronaphthalen-1-yl)methyl]-1H-imidazol-4-yl}-4-[5-(trifluoromethyl)-1H-1,2,3-triazol-4-yl]pyridine], with 0.1 to 1 µM.
Then `Fc1cccc(F)c1CCn1cnc(-c2cc(-c3nn[nH]c3C(F)(F)F)ccn2)c1` [Example 87, 2-{1-[2-(2,6-difluorophenyl)ethyl]-1H-imidazol-4-yl}-4-[5-(trifluoromethyl)-1H-1,2,3-triazol-4-yl]pyridine], with at most 0.1 µM; and `CCC(c1ccccc1)n1cnc(-c2cc(-c3nn[nH]c3C(F)(F)F)ccn2)c1` (stereo not shown) [Example 74, 2-[1-(1-phenylpropyl)-1H-imidazol-4-yl]-4-[5-(trifluoromethyl)-1H-1,2,3-triazol-4-yl]pyridine], with at most 0.1 µM; and `FC(F)(F)c1[nH]nnc1-c1ccnc(-c2cn(Cc3ccccc3Cl)cn2)c1` [Example 64, 2-{1-[(2-chlorophenyl)methyl]-1H-imidazol-4-yl}-4-[5-(trifluoromethyl)-1H-1,2,3-triazol-4-yl]pyridine], with at most 0.1 µM.
Then `FC(F)(F)c1ccccc1CCn1cnc(-c2cc(-c3nn[nH]c3C(F)(F)F)ccn2)c1` [Example 60, 4-[5-(trifluoromethyl)-1H-1,2,3-triazol-4-yl]-2-(1-{2-[2-(trifluoromethyl)phenyl]ethyl}-1H-imidazol-4-yl)pyridine], with 0.1 to 1 µM; and `Fc1cc(F)c(CCn2cnc(-c3cc(-c4nn[nH]c4C(F)(F)F)ccn3)c2)c(F)c1` [Example 82, 4-[5-(trifluoromethyl)-1H-1,2,3-triazol-4-yl]-2-{1-[2-(2,4,6-trifluorophenyl)ethyl]-1H-imidazol-4-yl}pyridine], with at most 0.1 µM.
Turning to `Cc1ccc2c(c1)C(Cn1cnc(-c3cc(-c4nn[nH]c4C(F)(F)F)ccn3)c1)CCC2` (stereo not shown) [Example 103, 2-{1-[(7-methyl-1,2,3,4-tetrahydronaphthalen-1-yl)methyl]-1H-imidazol-4-yl}-4-[5-(trifluoromethyl)-1H-1,2,3-triazol-4-yl]pyridine], the IC50 was 0.1 to 1 µM.
In the case of `CC(C)(C)c1ccc(CCn2cnc(-c3cc(-c4nn[nH]c4C(F)(F)F)ccn3)c2)cc1` [Example 96, 2-{1-[2-(4-tert-butylphenyl)ethyl]-1H-imidazol-4-yl}-4-[5-(trifluoromethyl)-1H-1,2,3-triazol-4-yl]pyridine], the IC50 is 0.1 to 1 µM.
Take `Cc1ccc(Cn2cnc(-c3cc(-c4nn[nH]c4C(F)(F)F)ccn3)c2)c(F)c1` [Example 71, 2-{1-[(2-fluoro-4-methylphenyl)methyl]-1H-imidazol-4-yl}-4-[5-(trifluoromethyl)-1H-1,2,3-triazol-4-yl]pyridine]: the IC50 was at most 0.1 µM.
Then `COc1ccc(CCn2cnc(-c3cc(-c4nn[nH]c4C(F)(F)F)ccn3)c2)cc1` [Example 93, 2-{1-[2-(4-methoxyphenyl)ethyl]-1H-imidazol-4-yl}-4-[5-(trifluoromethyl)-1H-1,2,3-triazol-4-yl]pyridine], with at most 0.1 µM; and `Fc1ccc(F)c(CCn2cnc(-c3cc(-c4nn[nH]c4C(F)(F)F)ccn3)c2)c1` [Example 88, 2-{1-[2-(2,5-difluorophenyl)ethyl]-1H-imidazol-4-yl}-4-[5-(trifluoromethyl)-1H-1,2,3-triazol-4-yl]pyridine], with at most 0.1 µM.
In the case of `COc1ccc(Cn2cnc(-c3cc(-c4nn[nH]c4C(F)(F)F)ccn3)c2)cc1` [Example 67, 2-{1-[(4-methoxyphenyl)methyl]-1H-imidazol-4-yl}-4-[5-(trifluoromethyl)-1H-1,2,3-triazol-4-yl]pyridine] it was at most 0.1 µM; in that of `Fc1cccc(Cl)c1CCn1cnc(-c2cc(-c3nn[nH]c3C(F)(F)F)ccn2)c1` [Example 80, 2-{1-[2-(2-chloro-6-fluorophenyl)ethyl]-1H-imidazol-4-yl}-4-[5-(trifluoromethyl)-1H-1,2,3-triazol-4-yl]pyridine], 0.1 to 1 µM.

By IC50 is commonly meant the point on the concentration scale where inhibition reaches its midpoint. A higher IC50 goes with lower potency.
